Measured values as given in patent US9272990B2, “Lysophosphatidic acid receptor antagonists and their use in the treatment fibrosis” (AMIRA PHARMACEUTICALS, INC., priority 2010, dated 2016).

Columns and labels:
[1] = biological target: T1, Human LPA1 (Homo sapiens, UniProt Q92633); experiment: LPA1 calcium flux assay; type: cell-based; details: CHO cells expressing human LPA1, stimulated with 10 nM LPA; read-out: LPA1 Ca^2+ flux
T1 construct: the full-length cDNA for human LPA1 was obtained by PCR of the reverse transcription reaction; expressed in transfected cells
T1 sequence (Q92633 whole entry): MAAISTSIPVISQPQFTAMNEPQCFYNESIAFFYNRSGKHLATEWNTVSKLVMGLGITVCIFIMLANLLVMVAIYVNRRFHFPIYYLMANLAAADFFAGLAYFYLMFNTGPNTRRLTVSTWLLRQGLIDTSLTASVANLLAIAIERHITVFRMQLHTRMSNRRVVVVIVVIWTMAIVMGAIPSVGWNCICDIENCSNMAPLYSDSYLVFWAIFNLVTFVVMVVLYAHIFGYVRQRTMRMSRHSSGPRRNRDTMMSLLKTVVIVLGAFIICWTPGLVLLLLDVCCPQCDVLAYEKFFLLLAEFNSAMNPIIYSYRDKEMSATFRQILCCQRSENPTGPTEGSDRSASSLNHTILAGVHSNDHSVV
Experimental: A 1.1 kb cDNA encoding the human LPA1 receptor was cloned from human lung. Human lung RNA (Clontech Laboratories, Inc. USA) was reverse transcribed using the RETROSCRIPT® kit (Ambion, Inc.) and the full-length cDNA for human LPA1 was obtained by PCR of the reverse transcription reaction. The nucleotide sequence of the cloned human LPA1 was determined by sequencing and confirmed to be identical to the published human LPA1 sequence (An et al., Biochem. Biophys. Res. Commun. 231:619 (1997). The cDNA was cloned into the pcDNA5/FRT expression plasmid and transfected in CHO cells using Lipofectamine 2000 (Invitrogen Corp., USA). Clones stably expressing human LPA1 were selected using hygromycin and identified as cells that show Ca-influx in response to LPA.
Human LPA1 or LPA3 expressing CHO cells are seeded at 20,000-45,000 cells per well in a 96-well poly-D-lysine coated plate one or two days before the assay. Prior to the assay, the cells are washed once with PBS and then cultured in serum-free media overnight. On the day of the assay, a calcium indicator dye (Calcium 4, Molecular Devices) in assay buffer (HBSS with Ca^2+ and Mg^2+ and containing 20 mM Hepes and 0.3% fatty-acid free human serum albumin) is added to each well and incubation continued for 1 hour at 37° C. 10 μl of test compounds in 2.5% DMSO are added to the cells and incubation continued at room temperature for 30 minutes. Cells are the stimulated by the addition of 10 nM LPA and intracellular Ca^2+ measured using the FLEXSTATION® 3 (Molecular Devices). IC50s are determined using Graphpad prism analysis of drug titration curves.

[2] = tested on: mouse bleomycin lung fibrosis model; experiment: Bleomycin-induced lung fibrosis model in mice; type: in vivo
Description: Female C57Bl/6 mice (Harlan, 25-30 g) are housed 4 per cage, given free access to food and water and allowed to acclimate for at least 7 days prior to test initiation. After the habituation phase, mice are lightly anesthetized with isoflurane (5% in 100% O2) and administered with bleomycin sulfate (0.01-5 U/kg, Henry Schein) via intratracheal instillation (Cuzzocrea, S et al., Am. J. Physiol. Lung Cell Mol. Physiol., 292(5):L1095-104 (May 2007) (Epub Jan. 12, 2007). Mice are returned to their cages and monitored daily for the duration of the experiment. Test compound or vehicle is delivered po, ip or sc daily. The route and frequency of dosing is based on previously determined pharmacokinetic properties. All animals are sacrificed using inhaled isoflurane 3, 7, 14, 21 or 28 days after bleomycin instillation. Following sacrifice, mice are intubated with a 20 gauge angiocatheter attached to a 1 ml syringe. Lungs are lavaged with saline to obtain bronchoalveolar lavage fluid (BALF) and then removed and fixed in 10% neutral buffered formalin for subsequent histopathological analysis. BALF is centrifuged for 10 min at 800×g to pellet the cells and the cell supernatant removed and frozen at −80° C. for subsequent protein analysis using the DC protein assay kit (Biorad, Hercules, Calif.) and soluble collagen analysis using Sircol (Biocolor Ltd, UK). BALF is analyzed for concentrations of inflammatory, pro-fibrotic and tissue injury biomarkers including transforming growth factor β1, hyaluronic acid, tissue inhibitor of metalloproteinase-1, matrix matelloproteinase-7, connective tissue growth factor and lactate dehydrogenase activity, using commercially available ELISA. The cell pellet is re-suspended in PBS. Total cell counts are then obtained using a HEMAVET® hematology system (Drew Scientific, Wayne, Pa.) and differential cells counts are determined using Shandon cytospin (Thermo Scientific, Waltham, Mass.). Lung tissue is stained using hematoxylin and eosin (H&E) and trichrome and lung fibrosis is determined by semiquantitative histopathological scoring (Ashcroft T. et al., J. Clin. Path., 41(4):467-470 (1988)) using light microscopy (10× magnification) and quantitative, computer-assisted densitometry of collagen in lung tissue sections using light microscopy. The data are plotted using Graphpad prism and statistical differences between groups determined

[3] = tested on: nerve-injured mice; details: pretreatment; cited from earlier work
[4] = tested on: highly peritoneal metastatic pancreatic cancer cell line; details: cited from earlier work
[5] = tested on: human foetal lung fibroblasts; details: cited from earlier work
[6] = tested on: bone metastasis; details: in vivo; cited from earlier work
[7] = tested on: UUO mice; details: compared with LPA1 (−/−) mice; cited from earlier work
[8] = tested on: pancreatic cancer cell lines; details: cited from earlier work
[9] = tested on: mouse epithelial renal cell line, MCT; details: co-treatment with LPA, MCT cells; cited from earlier work
[10] = biological target: T2, LPA3 receptor (Mus musculus, UniProt Q9EQ31); details: in the presence of the agonist; cited from earlier work
T2 construct: host or cells: mouse kidney in vivo
T2 sequence (Q9EQ31 1-354): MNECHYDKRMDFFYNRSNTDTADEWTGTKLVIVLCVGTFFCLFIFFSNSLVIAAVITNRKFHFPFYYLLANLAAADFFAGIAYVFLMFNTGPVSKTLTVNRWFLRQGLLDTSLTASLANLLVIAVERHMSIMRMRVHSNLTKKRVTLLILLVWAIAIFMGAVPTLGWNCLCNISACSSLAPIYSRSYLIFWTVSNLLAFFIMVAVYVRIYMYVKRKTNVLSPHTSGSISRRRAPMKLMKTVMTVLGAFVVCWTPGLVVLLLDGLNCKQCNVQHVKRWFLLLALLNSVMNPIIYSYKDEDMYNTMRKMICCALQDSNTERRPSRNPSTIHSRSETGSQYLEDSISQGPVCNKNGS

[11] = multiple timepoints following intratracheal bleomycin instillation

**Q.** Which IC50 [1] does the source give for `CC(OC(=O)Nc1ccncc1-c1ccc(-c2ccc(C3(C(=O)O)CC3)cc2)cc1)c1ccccc1Cl` (centres unmarked) [Compound 1-1, 1-(4′-{4-[1-(2-chloro-phenyl)-ethoxycarbonylamino]-pyridin-3-yl}-biphenyl-4-yl)-cyclopropanecarboxylic acid] here?
**A.** < 300 nM

**Q.** What about the “BALF MMP-7” value ([2]; acute setting (3 day)) of the same compound?
**A.** reduced

**Q.** And the “BALF TGFβ1” value ([2]; acute setting (3 day))?
**A.** reduced

**Q.** What about the BALF collagen ([2]; acute setting (3 day)) of the same compound?
**A.** reduced

**Q.** What about the BALF hyaluronan ([2]; acute setting (3 day)) of the same compound?
**A.** reduced

**Q.** What about the “BALF inflammatory cell influx” value ([2]; acute setting (3 day)) of the same compound?
**A.** reduced

**Q.** And the BALF protein ([2]; acute setting (3 day))?
**A.** reduced

**Q.** What about the fibrosis [2, 11] of the same compound?
**A.** reduced

**Q.** What about the inflammation [2, 11] of the same compound?
**A.** reduced

**Q.** And the lung injury [2, 11]?
**A.** reduced

**Q.** And the vascular leakage [2, 11]?
**A.** reduced

**Q.** With `C[C@@H](N)[C@H]1CC[C@H](C(=O)Nc2ccncc2)CC1` [Compound Y-27632] as the compound, how does the allodynia and hyperalgesia [3] read?
**A.** completely abolished

**Q.** With `Cc1noc(-c2ccc(CSCCC(=O)O)cc2)c1NC(=O)OC(C)c1ccccc1Cl` (centres unmarked) [Ki16425] as the compound, how does the “LPA-induced and ascites-induced invasion activity” value [4] read?
**A.** blocked

**Q.** What about the “chemotaxis of human foetal lung fibroblasts induced by BAL from IPF patients” value [5] of the same compound?
**A.** blocked

**Q.** What about the “increased fibroblast chemotactic activity in bronchoalveolar lavage samples of human subjects with IPF” value [5] of the same compound?
**A.** inhibited

**Q.** And the metastasis to bone [6]?
**A.** inhibit metastasis to bone

**Q.** What about the “development of renal fibrosis” value [7] of the same compound?
**A.** closely resembled the LPA1 (−/−) mice

**Q.** What about the “in vitro migration in response to LPA and peritoneal fluid (ascites) from pancreatic cancer patients” value [8] of the same compound?
**A.** effectively blocked

**Q.** And the “LPA-induced expression of the profibrotic cytokine CTGF” value [9]?
**A.** almost completely suppressed

**Q.** Which “reduction of severity of injury by blockade of the LPA3 receptor” value [10] does the source give for `CCCCCCCC/C=C\CCCCCCCC(=O)OC[C@@H](COP(O)(O)=S)OC` [OMPT] here?
**A.** reversed
